Source: patent US12642791B2, “Inhibitors of lysyl oxidases” (UNIVERSITY OF SOUTH CAROLINA, priority 2021, dated 2026)

Assays:
[1] = in vivo; cited from earlier work
TM01278 PDX = experiment: Doxorubicin-resistant TNBC PDX tumors; type: in vivo
Method: FIG. 27. Targeting LOX in TNBC PDX organoids or tumors overcomes resistance. A. Scheme showing the selection pipeline of PDXs for in vivo testing. B. Correlation analysis of LOX mRNA expression with hypoxia and focal adhesion scores in 15 different TNBC PDX models. Red dots show the positions of the selected TM01278. C. Representative images of TM01278 PDX organoids at day 0 and day 9 after treatment with doxorubicin (40 nM) and BAPN (25 mM) treatment, alone or in combination (left) and quantification of organoid diameter upon combination therapy for 9 days (right) (n=12 (vehicle, Doxo, BAPN), n=11 (Doxo+BAPN)). D. Tumor growth of TM01278 PDX upon treatment with doxorubicin (2 mg/kg) and BAPN (100 mg/kg), alone or in combination (n=5). […] E. Quantification of Picrosirius red staining in PDX tumors from D (n=4). F. Doxorubicin fluorescence quantification in tumors from D (n=6). G. Western Blots of FAK/Src signaling in PDXs treated with doxorubicin and BAPN alone or in combination.

[2] = tested on: MDA-MB-231 cells embedded in collagen I; experiment: ECM crosslinking by collagen and fibronectin immunofluorescence staining; type: cell-based, human
Method: FIG. 31. […] A. Inhibition of LOX activity in MDA-MB-231 cells treated with 5 μM of the LOX inhibitors. B. Doxorubicin sensitization with 6232 and its analogs, 6403 and 6415, in 3D collagen-I culture. C. Collagen and fibronectin staining of vehicle or 6232 or 6403 or 6415-treated MDA-MB-231 cells embedded in collagen I. BAPN is used as a positive control.
(§1) Immunofluorescence staining of cells was done in μ-Slide 8-well glass bottom chambers (Ibidi, Germany). Cells were fixed with 4% paraformaldehyde for 20 min, permeabilized with 0.5% Triton X-100 for 10 min and blocked in 5% BSA-PBS. Samples were incubated with primary (Collagen I, Fibronectin, F-actin, a-SMA) and secondary Alexa Fluor 647 or 488-labeled antibodies for 1.5 hours at room temperature. Cells were also counterstained with DAPI for 5 min. Images were acquired using ZEN 2012 SP5 (Black) LSM 700 (Carl Zeiss, DE).

TM01278 PDX organoids = experiment: PDX-derived TNBC organoids, combination with doxorubicin; type: cell-based, human; details: BAPN (25 mM) with doxorubicin (40 nM), 3D culture with collagen I, 9 days
Method: FIG. 36. Combination of 6403 and 6415 with doxorubicin reduced the growth of the TNBC organoids. A. Representative images of TM01278 PDX organoids at day 0 and day 9 after treatment with doxorubicin (50 nM) and 6403 and 6415 treatments, alone or in combination. B. Quantification of organoid diameter and viability upon combination therapy for 9 days.
TNBC organoids were established from a fresh surgical tissue by cutting the tumor into small pieces and incubating in collagenase A solution with ROCK inhibitor on a shaker at 37° C. for 30 minutes. The collagenase activity was inhibited by adding FBS, and pipetting was done to ensure the formation of almost a single cell solution. After several washes with PBS, the cell pellet was dissolved in matrigel. Breast organoid media containing ROCK and GSK inhibitors was added after the Matrigel solidified. See, Sachs, N. et al. A Living Biobank of Breast Cancer Organoids Captures Disease Heterogeneity. Cell 172, 373-386 e310, doi:10.1016/j.cell.2017.11.010 (2018). For drug testing studies, organoids were disrupted to single cells by digesting at 37° C. for 30 mins with TrypLE (A1217701, Gibco, NY, USA) in the presence of 10 μM Rock inhibitor (s1049, Selleckchem, TX, USA). Organoids were plated into wells of 96 well plate (20.000 cells/well) on a collagen-coated surface with media containing 2% Matrigel (356252, Corning, NY, USA). Drugs were added 72 hours after plating. Cells were grown in the presence of drug or vehicle for 9 days, and photos were taken from each well to show the organoid size. Organoid viability was measured by using 3D Cell Titer Glo (Promega, USA) kit.

MDA-MB-43614 = experiment: Doxorubicin re-sensitization of collagen I-embedded TNBC cells; type: cell-based, human
MDA-MB-231 cells = experiment: Doxorubicin chemosensitization in 3D collagen I culture; type: cell-based, human; details: collagen I-embedded cells, combination with doxorubicin
Method: Collagen solution was prepared at a concentration of 0.5-1 mg/ml from the rat tail collagen I (Corning, USA) with a neutralization step including the addition of 1N NaOH solution. Cells were trypsinazed and resuspended in collagen:matrigel mix (1:1). 8×10^3 cells were seeded into 96-well or μ-Slide 8-well glass bottom chambers. After 1 hour of incubation at room temperature, media was added on top of the solidified collagen:matrigel mix. Drug treatments were done 12 hours after cell seeding.
Cells were embedded in type I collagen:matrigel mix as described above. Cells were grown in the presence of doxorubicin or LOX inhibitors alone or combination of LOX inhibitors with doxorubicin for 48 hours. After the treatment, cell viability was measured by using 3D Cell Titer Glo (Promega, USA) kit.

Caki-1 cells = experiment: ECM crosslinking in kidney cancer cells; type: cell-based, human; details: 6232 at 10 uM, BAPN at 10 mM
Method: as §1

[3] = tested on: cellular lysyl oxidase (LOX) activity, MDA-MB-231 cells; experiment: Cell-based lysyl oxidase activity assay (Abcam kit); set-up: species or system human; details: read-out: IC50 for cellular lysyl oxidase inhibition
From the text: As the available LOX inhibitors are either not very potent or have toxicity, the inventors developed a robust screening pipeline shown in FIG. 28 to identify potent and safe LOX-specific and pan-LOX inhibitors. Briefly, a high-throughput cell-based LOX activity (Abcam) screen (HTS) was done for more than 5,000 drug-like compounds from the EXPRESS-Pick diversified library (4,480 molecules, ChemBridge) and Tocriscreen library of bioactive compounds (1,280 compounds, Tocris), each at a single concentration of 10 μM. […] The toxic molecules were counter screened with cell cytotoxicity assay and filtered out.
FIGS. 34. […] IC50 for cellular lysyl oxidase activity upon treatment of MDA-MB-231 cells with different LOX inhibitors. uM=microM.
For cell-based lysyl oxidase activity, fluorometric Lysly Oxidase Activity Assay Kit (Abcam, USA) was used according to manufacturer's instructions. Briefly, after the treatment, 50 μl of supernatant from each well was incubated with reagent mix and fluorescence measured in multimode-reader at Ex/Em=540/590 nm wavelength.

MDA-MB-15714 = experiment: Doxorubicin re-sensitization of collagen I-embedded TNBC cells; type: cell-based, human
MDA-MB-231 xenografts = experiment: Acquired doxorubicin resistant xenografts; type: in vivo; details: BAPN 100 mg/kg added to doxorubicin 2.5 mg/kg
Method: To test the ability of LOX inhibition to overcome doxorubicin resistance in chemotherapy-refractory TNBC in vivo, the inventors first treated MDA-MB-231 xenografts with doxorubicin until an accelerated tumor growth was achieved.
At this point, BAPN (100 mg/kg) was added to half of the doxorubicin-resistant tumors while the rest continued to receive doxorubicin alone (2.5 mg/kg).
FIG. 26. Inhibiting LOX overcomes resistance in acquired doxorubicin resistant MDA-MB-231 xenografts. A. Tumor growth in xenografts treated with low dose doxorubicin until resistance develops followed by treatment with the combination of doxorubicin (2.5 mg/kg) and the LOX inhibitor, BAPN (100 mg/kg). B. Relative LOX activity in tumors from A. C. Representative images of Picrosirius red in tumors from A.

SMILES: N#CCCN [BAPN, 6-aminopropionitrile]
- toxicity in the clinic [1]: showed toxicity in the clinic
- LOX activity (TM01278 PDX; BAPN 100 mg/kg): reduced
- doxorubicin penetration (TM01278 PDX; BAPN 100 mg/kg): enhanced doxorubicin penetration
- fibrillar collagen content (TM01278 PDX; BAPN 100 mg/kg): reduced
- tumor growth (TM01278 PDX; BAPN 100 mg/kg with doxorubicin 2 mg/kg): reduced tumor growth
- ECM crosslinking (collagen and fibronectin staining) [2]: decrease in ECM crosslinking
- tumor organoid size (TM01278 PDX organoids): significantly decreased tumor organoid size
- doxorubicin re-sensitization (MDA-MB-43614): re-sensitized
- doxorubicin sensitization (MDA-MB-231 cells): re-sensitized
- ECM crosslinking (Caki-1 cells): decrease in ECM crosslinking
- IC50 [3]: > 100 µM
- doxorubicin re-sensitization (MDA-MB-15714): re-sensitized
- LOX activity in tumors (MDA-MB-231 xenografts): reduction in LOX activity
- fibrillar collagen in tumors (MDA-MB-231 xenografts): reduction
- survival (MDA-MB-231 xenografts): improved survival
- tumor growth (MDA-MB-231 xenografts): significant decrease in tumor growth
